Values after ≈ are worked out from the molar mass of the structure shown. Like-named read-outs stand apart in the source and are kept apart here.
Legend:
P388 leukemia = experiment: Antitumor activity against P388 leukemia in mice, i.p. administration (T/C, therapeutic index); assay type: in vivo, CDF1 mice; details: for ED (T/C 130%): Mus musculus, P388, ip, read-out: Dose for T/C = 130 %
P 388 leukemia [1] = experiment: animal or person; assay type: in vivo, CDF1 mice; details: for ED (T/C 130%): Mus musculus, P388, iv, read-out: Dose for T/C = 130%
P 388 leukemia [2] = experiment: animal or person; assay type: in vivo, CDF1 mice; details: for ED (T/C 130%): Mus musculus, P388, po, read-out: Dose for T/C = 130%
[3] = test system: Adriamycin-resistant P 388 leukemia cells (P 388/ADR); experiment: cells; assay type: cell-based; details: for IC50: Mus musculus, P388, 48 h, read-out: IC50 P388/ADR; for R/S: mouse, 2880 min
in vivo = details: mouse, iv
Lewis lung carcinoma = experiment: Tumor growth inhibition against solid tumors (Lewis lung carcinoma); details: for Tumor growth inhibition: i.v., days 1, 5 and 9, day 13
P 388 leukemia [4] = details: known from the art; cited from earlier work
[5] = comp. data from Japanese Patent Application Laid-Open Pub. No. 76896/1980; cited from earlier work
[6] = mouse, in vivo, ip, 0.5 mg/kg/day
[7] = mouse, in vivo, ip, 1 mg/kg/day
[8] = mouse, in vivo, ip, 2 mg/kg/day
[9] = mouse, in vivo, ip, 4 mg/kg/day
[10] = mouse, in vivo, iv, 1 mg/kg/day
[11] = mouse, in vivo, iv, 2 mg/kg/day
[12] = mouse, in vivo, iv, 4 mg/kg/day
[13] = mouse, in vivo, iv, 8 mg/kg/day
[14] = mouse, in vivo, po, 1 mg/kg/day
[15] = mouse, in vivo, po, 2 mg/kg/day
[16] = mouse, in vivo, po, 4 mg/kg/day
[17] = mouse, in vivo, ip, 8 mg/kg/day
[18] = mouse, in vivo, ip, 12 mg/kg/day
[19] = mouse, in vivo, ip, 16 mg/kg/day
[20] = mouse, in vivo, iv, 16 mg/kg/day
[21] = mouse, in vivo, iv, 32 mg/kg/day
[22] = mouse, in vivo, po, 8 mg/kg/day
[23] = mouse, in vivo, po, 16 mg/kg/day
[24] = mouse, in vivo, po, 32 mg/kg/day

| Structure (SMILES) | ED (T/C 130%) (P388 leukemia) | Therapeutic index (P388 leukemia; mouse, in vivo, ip) | T/C (P388 leukemia; [6]) | T/C (P388 leukemia; [7]) | T/C (P388 leukemia; [8]) | T/C (P388 leukemia; [9]) | ED (T/C 130%) (P 388 leukemia [1]) | Therapeutic index (P 388 leukemia [1]; mouse, in vivo, iv) | T/C (P 388 leukemia [1]; [10]) | T/C (P 388 leukemia [1]; [11]) | T/C (P 388 leukemia [1]; [12]) | T/C (P 388 leukemia [1]; [13]) | ED (T/C 130%) (P 388 leukemia [2]) | Therapeutic index (P 388 leukemia [2]; mouse, in vivo, po) | T/C (P 388 leukemia [2]; [16]) | R/S [3] | LD50 (in vivo) | T/C (P388 leukemia; [17]) | T/C (P 388 leukemia [2]; [22]) | T/C (P 388 leukemia [2]; [23]) | further results |
| --- | --- | --- | --- | --- | --- | --- | --- | --- | --- | --- | --- | --- | --- | --- | --- | --- | --- | --- | --- | --- | --- |
| CCC1(O)CC(OC2CC(N3CCOCC3)C(O)C(C)O2)c2c(O)c3c(c(O)c2C1O)C(=O)c1cccc(O)c1C3=O (stereo not shown) [3'-deamino-3'-(4-morpholinyl)-R20X2] | 0.35 mg/kg/day | 5.7 | 150 | 186 | > 246 | > 158 | 0.43 mg/kg/day | 4.7 | 154 | 204 | 194 | 35 | 0.58 mg/kg/day | 3.4 | 103 | 1.22 | 3.55 mg/kg |  |  |  | T/C (P388 leukemia; mouse, in vivo, ip, 0.25 mg/kg/day): 112; T/C (P 388 leukemia [1]; mouse, in vivo, iv, 0.25 mg/kg/day): 109; T/C (P 388 leukemia [1]; mouse, in vivo, iv, 0.5 mg/kg/day): 136; T/C (P 388 leukemia [2]; mouse, in vivo, po, 0.25 mg/kg/day): 109; T/C (P 388 leukemia [2]; mouse, in vivo, po, 0.5 mg/kg/day): 120; T/C (P 388 leukemia [2]; [14]): 164; T/C (P 388 leukemia [2]; [15]): 228; IC50 [3]: 0.011 µg/mL (≈ 0.0188 µM); toxicity to the heart at dosage level of maximum antitumor activity (heart; dosage level T/C=max): not found to be toxic; Solubility: insoluble (Solubility; insoluble in): insoluble in water, hexane, cyclohexane, diethyl ether, and petroleum ether; Solubility: soluble (Solubility; soluble in): Soluble in acidic water, basic water, methanol, ethanol, propanol, acetone, ethyl acetate, and chloroform |
| COc1cccc2c1C(=O)c1c(O)c3c(c(O)c1C2=O)C[C@@](O)(C(=O)CO)C[C@@H]3O[C@H]1C[C@H](N)[C@H](O)[C@H](C)O1 [Adriamycin, reference compound] | < 0.25 mg/kg/day |  | 177 | 191 | > 217 | 204 |  |  |  |  |  |  |  |  |  | 29.2 |  | > 256 |  |  | T/C (P388 leukemia; [18]): 194; IC50 [3]: 0.35 µg/mL (≈ 0.644 µM); Tumor growth inhibition (Lewis lung carcinoma; 1 mg/kg/day): 34.5%; Tumor growth inhibition (Lewis lung carcinoma; 2 mg/kg/day): 14.1%; Tumor growth inhibition (Lewis lung carcinoma; 4 mg/kg/day): 64.2%; Tumor growth inhibition (Lewis lung carcinoma; 8 mg/kg/day): 72.8% |
| CCC1(O)Cc2cc3c(c(O)c2C(OC2CC(N4CCOCC4)C(O)C(C)O2)C1)C(=O)c1c(O)cccc1C3=O (stereo not shown) [3'-deamino-3'-(4-morpholinyl)-R20Y5] | 6.2 mg/kg/day |  |  |  |  | 104 | 4.9 mg/kg/day |  |  | 104 | 123 | 148 | 4.3 mg/kg/day |  | 127 |  | 65 mg/kg | 146 | 154 | 191 | antitumor activity compared with R20Y5 (in words) (P388 leukemia; comparison with R20Y5 of Japanese Laid-Open 76896/1980): antitumor activity of R20Y5 can be remarkably increased by 3'-deamino-3'-4-morpholinylation; T/C (P388 leukemia; [19]): 175; T/C (P388 leukemia; mouse, in vivo, ip, 32 mg/kg/day): 219; T/C (P388 leukemia; mouse, in vivo, ip, 64 mg/kg/day): 93; T/C (P 388 leukemia [1]; [20]): 182; T/C (P 388 leukemia [1]; [21]): > 240; T/C (P 388 leukemia [2]; [24]): 263; T/C (P 388 leukemia [2]; mouse, in vivo, po, 64 mg/kg/day): 238; antitumor activity against solid tumors (in words) (Lewis lung carcinoma; Lewis lung carcinoma): antitumor activity comparable to or better than that of Adriamycin against solid tumors; Tumor growth inhibition (Lewis lung carcinoma; 4 mg/kg/day): 9.6%; Tumor growth inhibition (Lewis lung carcinoma; 8 mg/kg/day): 31.0%; Tumor growth inhibition (Lewis lung carcinoma; 16 mg/kg/day): 66.6%; Tumor growth inhibition (Lewis lung carcinoma; 32 mg/kg/day): 91.7% |
| CC[C@@]1(O)C[C@H](O[C@H]2C[C@H](N(C)C)[C@H](O[C@H]3C[C@H](O)[C@H](O[C@H]4CCC(=O)[C@H](C)O4)[C@H](C)O3)[C@H](C)O2)c2c(cc3c(c2O)C(=O)c2c(O)cccc2C3=O)[C@H]1C(=O)OC [Aclacinomycin, reference compound] |  | 3.6 |  |  | 111 | 126 |  | 2.6 |  |  | 121 | 119 |  | 2.1 |  | 1.92 |  | 155 | 119 | 131 | Dose for T/C = 130% (P388 leukemia; mouse, in vivo, ip): 4.4 mg/kg/day; T/C (P388 leukemia; [19]): 182; Dose for T/C = 130% (P 388 leukemia [1]; mouse, in vivo, iv): 12.4 mg/kg/day; T/C (P 388 leukemia [1]; [20]): 151; T/C (P 388 leukemia [1]; [21]): 177; T/C (P 388 leukemia [1]; mouse, in vivo, iv, 64 mg/kg/day): 35; Dose for T/C = 130% (P 388 leukemia [2]; mouse, in vivo, po): 15 mg/kg/day; T/C (P 388 leukemia [2]; [24]): 154; IC50 P388/ADR [3]: 0.025 µg/mL (≈ 0.0308 µM); effectiveness by oral administration (in words) (P 388 leukemia [4]): effective in the case of oral administration |
| CCC1(O)Cc2cc3c(c(O)c2C(OC2CC(N)C(O)C(C)O2)C1)C(=O)c1c(O)cccc1C3=O (stereo not shown) [R20Y5, 11-deoxy-13-deoxocarminomycin] |  |  |  |  |  |  |  |  |  |  |  |  |  |  |  |  |  |  |  |  | LD50 [5]: 15 mg/kg |
| CCC1(O)Cc2c(O)c3c(c(O)c2C(OC2CC(N4CCOCC4)C(O)C(C)O2)C1)C(=O)c1c(O)cccc1C3=O (stereo not shown) [3'-deamino-3'-(4-morpholinyl)-R20X] | 0.75 mg/kg/day |  | 104 | 148 | 177 | 218 | 2.5 mg/kg/day |  | 104 | 119 | 155 | 151 | 1.45 mg/kg/day |  | 170 |  | 12.3 mg/kg | > 303 | 214 | 219 | T/C (P388 leukemia; [18]): 231; T/C (P 388 leukemia [1]; mouse, in vivo, iv, 12 mg/kg/day): 57; T/C (P 388 leukemia [2]; [14]): 111; T/C (P 388 leukemia [2]; [15]): 146; toxicity to the heart at dosage level of maximum antitumor activity (heart; hamster, in vivo): not found to be toxic |
